Laboratory results reported in US20140364438A1, “TRIAZOLOPYRIDINE DERIVATIVES AS A TYROSINE KINASE INHIBITOR” (HANMI PHARM. CO., LTD., priority 2012, published 2014).
pIC50: −log10 of the molar value.

Key:
BTK = biological target: T1, BTK (Homo sapiens, UniProt Q06187); test: BTK kinase inhibitory activity, Z-Lyte Kinase Assay Kit; format: biochemical; conditions: 60 minutes at room temperature
T1 construct: purchased Invitrogen PV3190
Experimental: (§1) The compounds prepared in Examples 1 to 5 were tested for JAK3 and BTK kinase inhibitory activity. Kinase inhibitory activity was measured by using Z-Lyte Kinase Assay Kit (Invitrogen), and JAK3 and BTK enzymes were purchased from Invitrogen (PV3855, PV3190).
(§2) Specifically, the compounds of Examples 1 to 5 were diluted with an aqueous solution of 4% DMSO to obtain solutions with concentrations in the range of 1 to 0.0001 μM. Each kinase was diluted to 1 to 10 ng/assay, and ATP was diluted to form a kinase buffer (50 mM HEPES, pH 7.4; 10 mM MgCl2; 1 mM EGTA; and 0.01% BRIJ-35) by calculating an approximate Kd value. The assays were performed in 384-well polystyrene flat-bottomed plates. Peptide substrate having a suitable concentration, 10 μL of mixed kinase solution and 5 μL of ATP solution having a concentration of 5 to 300 μM were added to 5 μL of the diluted solution of the compound, and allowed to react in a mixer for 60 minutes at room temperature. After 60 minutes, 10 μL of fluorescent labeling reagents was added to each mixture so as to allow fluorescent labeling of peptide substrates, followed by adding a finishing solution to complete the reaction. The fluorescence level was determined with a Molecular Device at 400 nm (excitation filter) and 520 nm (emission filter). The kinase inhibitory activities of the compounds were calculated in phosphorylation rates between 0˜400% against the control group (staurosporine or each of kinase inhibitor) according to the reference protocol of the kit, and percentage inhibition was determine and plotted against concentration (x-axis) to calculate 50% inhibitory concentration (IC50). The calculation and analysis of IC50 were carried out by using Microsoft Excel.

JAK3 = biological target: T2, JAK3 (Homo sapiens, UniProt P52333); test: JAK3 kinase inhibitory activity, Z-Lyte Kinase Assay Kit; format: biochemical; conditions: 60 minutes at room temperature
T2 construct: purchased Invitrogen PV3855
T2 sequence (P52333 781-1124 limits assumed): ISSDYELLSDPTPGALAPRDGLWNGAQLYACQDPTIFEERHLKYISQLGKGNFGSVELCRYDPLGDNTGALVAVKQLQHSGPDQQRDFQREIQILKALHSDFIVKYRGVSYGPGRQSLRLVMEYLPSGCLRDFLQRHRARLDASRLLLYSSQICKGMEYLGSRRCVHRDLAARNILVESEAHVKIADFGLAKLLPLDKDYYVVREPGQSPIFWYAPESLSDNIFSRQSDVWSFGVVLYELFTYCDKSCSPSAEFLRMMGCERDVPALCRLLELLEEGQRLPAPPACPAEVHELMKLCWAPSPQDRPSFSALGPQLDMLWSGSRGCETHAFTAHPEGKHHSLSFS
Experimental: as §1, §2

T1 sequence (Q06187 whole entry): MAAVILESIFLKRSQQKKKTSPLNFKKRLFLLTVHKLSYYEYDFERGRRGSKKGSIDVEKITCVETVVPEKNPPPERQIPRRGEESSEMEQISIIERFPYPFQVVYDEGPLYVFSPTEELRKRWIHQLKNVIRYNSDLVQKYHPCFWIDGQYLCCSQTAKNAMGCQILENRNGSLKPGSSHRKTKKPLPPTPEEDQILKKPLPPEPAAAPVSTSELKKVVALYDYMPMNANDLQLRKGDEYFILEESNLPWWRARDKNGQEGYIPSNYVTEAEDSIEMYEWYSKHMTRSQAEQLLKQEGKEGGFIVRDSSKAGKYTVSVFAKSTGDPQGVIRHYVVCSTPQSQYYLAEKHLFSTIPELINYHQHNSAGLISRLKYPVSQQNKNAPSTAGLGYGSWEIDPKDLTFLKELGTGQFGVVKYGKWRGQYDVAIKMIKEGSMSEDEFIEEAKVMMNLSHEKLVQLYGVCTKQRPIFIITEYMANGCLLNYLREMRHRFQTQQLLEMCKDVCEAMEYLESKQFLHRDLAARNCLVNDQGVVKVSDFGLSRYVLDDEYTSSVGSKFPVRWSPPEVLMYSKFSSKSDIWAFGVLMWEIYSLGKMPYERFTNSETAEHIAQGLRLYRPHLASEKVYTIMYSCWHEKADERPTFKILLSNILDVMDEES

SMILES	pIC50 (BTK; class symbol)	pIC50 (BTK; numeric value in parentheses)	pIC50 (JAK3; class symbol)	pIC50 (JAK3; numeric value in parentheses)
C=CC(=O)Nc1cccc(Oc2cccn3nc(Nc4ccc(N5CCN(C)CC5)cc4)nc23)c1 [Example 1, N-(3-(2-(4-(4-methylpiperazin-1-yl)phenylamino)-[1,2,4]triazolo[1,5-a]pyridin-8-yloxy)phenyl)acrylamide]	≥ 7.00	7.14	≥ 7.00	8.05
C=CC(=O)Nc1cccc(Oc2cccn3nc(Nc4ccc(NC5CCN(C)CC5)c(F)c4)nc23)c1 [Example 2, N-(3-(2-(3-fluoro-4-(1-methylpiperidin-4-ylamino)phenylamino)-[1,2,4]triazolo[1,5-a]pyridin-8-yloxy)phenyl)acrylamide]	6.30 to 7.00	–	≥ 7.00	–
C=CC(=O)Nc1cccc(Oc2cccn3nc(Nc4ccc(CN(C)C)cc4)nc23)c1 [Example 3, N-(3-(2-(4-((dimethylamino)methyl)phenylamino)-[1,2,4]triazolo[1,5-a]pyridin-8-yloxy)phenyl)acrylamide]	6.30 to 7.00	–	≥ 7.00	–
C=CC(=O)Nc1cccc(Oc2cccn3nc(Nc4ccc(C(=O)N5CCN(C)CC5)cc4)nc23)c1 [Example 4, N-(3-(2-(4-(4-methylpiperazin-1-carbonyl)phenylamino)-[1,2,4]triazolo[1,5-a]pyridin-8-yloxy)phenyl)acrylamide]	6.30 to 7.00	–	≥ 7.00	–
C=CC(=O)Nc1cccc(Oc2cccn3nc(Nc4ccc(N5CCN(C(C)C)CC5)cc4)nc23)c1 [Example 5, N-(3-(2-(4-(4-isopropylpiperazin-1-yl)phenylamino)-[1,2,4]triazolo[1,5-a]pyridin-8-yloxy)phenyl)acrylamide]	6.00 to 6.30	–	≥ 7.00	–
